Assay results: article PMC11872463, “Identification of a group of 9-amino-acridines that selectively downregulate regulatory T cell functions through FoxP3” (iScience, 2025)
Where a name gives a salt, the structure may show the parent alone. Read-outs that look alike come from different tables or passages of the source.

Experiments:
FoxP3 [1] = system: T1, FoxP3; test: cells; parameters: species or system primary human CD3+ T cells; flow cytometry of FoxP3+ % in CD4+ T cells, normalized to mock (FoxP3 down-regulation); settings: FoxP3 down-regulation in CD4+ T cells, 24 h
T1 construct: endogenous, primary CD4+ T cells
Description: To search for potential small molecular FoxP3 inhibitors, we screened the Prestwick library of approved drugs (1,522 compounds) for compounds that regulated the expression of FoxP3 using a novel high-throughput flow cytometry protocol. Primary CD3^+ T cells from healthy donors were treated with compounds from the Prestwick library at 10 μM for 16 h, followed by a high-throughput flow cytometry analysis measuring FoxP3% in CD4^+ T cells (for workflow, see Figure S1A). Compounds that reduced FoxP3 levels compared to DMSO were selected for further validation. The first verified hit was quinacrine dihydrochloride dihydrate (QDD), where we observed a concentration-dependent FoxP3 downregulation with an IC50 of less than 5 μM in all donors tested (Figures 1A and 1B; Table 1, group 0; Figure S2A). QDD was also confirmed to downregulate FoxP3 in Tregs by gating out CD127^+ cells in both non-stimulated and stimulated T cells (Figure S1B). […] In the first round, compounds MP2, MP3, MP4, and MP5 were identified to be working efficiently in downregulating FoxP3 levels (Table 1, group 2; Table S1; Figure S2C). […] Therefore, a small library of similar acridine and acridinone compounds (Table 1, group 3 and 4; Table S1; Figures S2D and S2E) was assembled by in-silico prediction and assessed for their effects on FoxP3 regulation. […]

FoxP3 [2] = molecular target: T2, FoxP3 (Homo sapiens, UniProt Q9BZS1); test: SPR, concentration-dependent binding to immobilized FoxP3 (KD not given in main text); IC50 is from AlphaScreen FoxP3-DNA competition; EMSA
T2 construct: His-FoxP3 full-length (SPR); His-FoxP3-ΔN (182-421aa) (AlphaScreen, EMSA)
T2 sequence (Q9BZS1 182-421): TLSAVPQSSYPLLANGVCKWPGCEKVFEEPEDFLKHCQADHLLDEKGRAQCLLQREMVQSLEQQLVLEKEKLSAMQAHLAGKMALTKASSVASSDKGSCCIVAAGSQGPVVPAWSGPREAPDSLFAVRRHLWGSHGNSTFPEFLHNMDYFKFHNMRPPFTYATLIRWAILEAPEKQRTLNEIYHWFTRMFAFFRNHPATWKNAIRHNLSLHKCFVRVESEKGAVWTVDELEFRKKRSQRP
From the text: SPR, concentration-dependent binding to immobilized FoxP3 (KD not printed in main text); IC50 is from AlphaScreen FoxP3-DNA competition; EMSA on FoxP3 | we confirmed the concentration-dependent binding of QDD and MP4 to immobilized FoxP3 protein (Figure S6B)

FoxP3 [3] = molecular target: T2, FoxP3; test: biochemical; parameters: SPR on Biacore T200, His-FoxP3 immobilized on CM5 chip, affinity
Description: To explore how 9-amino acridines downregulate FoxP3, directly or indirectly, a low-molecular-weight compound screening (low molecular weight [LMW] screen) was performed using surface plasmon resonance (SPR) analysis to determine affinities between FoxP3 and all the compounds listed in Table 1. […] In contrast, we observed low or no affinity for FoxP3 with compounds that had little or no effects on FoxP3 downregulation (such as MP20 and MP25). Furthermore, we confirmed the concentration-dependent binding of QDD and MP4 to immobilized FoxP3 protein (Figure S6B) with dissociation constant (KD) values corresponding to the observed IC50 in the cell-based assay, implying that the function of 9-amino-acridine analogs on FoxP3 regulation might be due to their direct binding ability. SPR, concentration-dependent binding to immobilized FoxP3 (KD not printed in main text); IC50 is from AlphaScreen FoxP3-DNA competition; EMSA on FoxP3 | we confirmed the concentration-dependent binding of QDD and MP4 to immobilized FoxP3 protein (Figure S6B)

IC50 (FoxP3 [2]; read-out: IC50) [µM]	SMILES	IC50 (FoxP3 [1]) [µM]	Kd (FoxP3 [3]) [µM]	IC50 (FoxP3 [2]) [µM]
–	COc1cc(NC(C)CCCN)c2ncccc2c1 (centres unmarked) [Primaquine]	> 100	–	–
0.37	CCN(CC)CCCC(C)Nc1c2cc(OC)ccc2nc2cc(Cl)c(N)cc12 (centres unmarked) [MP4, 3-chloro-N9-[5-(diethylamino)pentan-2-yl]-7-methoxyacridine-2,9-diamine]	–	6.9	–
–	CCN(CC)CCCC(C)Nc1c2ccc(Cl)cc2nc2ccc(OC)cc12 (centres unmarked) [QDD, 6-chloro-N-[5-(diethylamino)pentan-2-yl]-2-methoxyacridin-9-amine dihydrate dihydrochloride]	–	4.09	2
